The experiment relates to Digitaria nuda. The experiment can be described thus: Test A: postemergence greenhouse control of Digitaria nuda, visual rating. Format: in vivo. To be noted: postemergence 3-4-leaf stage, 7 DAT, mean of 3 replicates. As to the method:
Plastic pots (10-cm square) were filled to the rim with a sandy loam soil having pH of 6.1, 1.4% organic matter and a cation exchange capacity (CEC) of 5.7 milliequivalents per 100 grams (meq/100 g). The soil was tamped firm to a uniform level of 2.5 cm below the rim of each pot. A measured amount of seeds of Digitaria nuda were scattered on the soil surface. Seeded pots were covered with approximately 50 mL of the same planting soil and tamped. The pots were then placed in a greenhouse and watered thoroughly 2-3 times daily as needed. A balanced fertilizer solution was injected into the watering system to provide 218 ppm of nitrogen. Artificial lighting was used to supplement natural light to produce a 14 h photoperiod. Greenhouse temperatures were targeted for 28.8 ° C. in the day and 19.8 ° C. at night.
When the D. nuda plants reached the 3-4-leaf growth stage (8-12 cm height), the pots were sorted into test units for herbicide application. Treatments were replicated three times. The herbicides were diluted in a measured amount of water and then mixed using a magnetic stir bar for 10 minutes before aliquots were taken to make individual treatment solutions. Diuron was in the form of the DuPont product KARMEX, which is a wettable granule formulation containing 80 weight % active ingredient. Hexazinone was in the form of the DuPont product VELPAR DF, which is a wettable granule formulation containing 75 weight % active ingredient. A mixture of hexazinone and diuron in 11:39 weight ratio was in the form of the DuPont product VELPAR-K (VELPAR-K4) 60 WG, which is a wettable granule formulation containing 13.2 weight % hexazinone and 46.8 weight % diuron active ingredients. A mixture of hexazinone and diuron in 1:8 weight ratio was in the form of the DuPont product VELPAR-K8 (marketed in Brazil as ADVANCE Herbicide), which is a wettable granule formulation containing 6.7 weight % hexazinone and 53.3 weight % diuron active ingredients. Tembotrione was in the form of the Bayer product LAUDIS, which was a suspension concentrate formulation stated to contain […] tembotrione active ingredient and 22 g isoxadifen-ethyl (a herbicide safener) per liter. These products were applied alone and in combinations. Application rates of diuron and hexazinone were 1800 and 210 g ai ha^−1, respectively. The application rates of the VELPAR-K4 mixture of hexazinone and diuron (132 g a.i. hexazinone+468 g a.i. diuron/kg of formulated product) and VELPAR-K8 mixture of hexazinone and diuron (67 g a.i. hexazinone+533 g a.i. diuron/kg of formulated product) were 1200 and 1800 g total a.i. ha^−1, respectively. Application rates of tembotrione were 30, 60, 90 and 120 g a.i./ha. (“a.i.” means active ingredient.) The pots were then sprayed through a T-Jet 8002E nozzle using a stationary belt sprayer calibrated to deliver 281 L/ha at 276 kPa. Treatments were replicated three times.
The plants were returned to the greenhouse, and then control was visually evaluated relative to the control plants at 7 days after treatment (DAT). A numerical percent rating system was used to describe the response observed from each treatment on a scale of 0 to 100%, in which 0% indicates no response and 100% indicates plant death or near death. The reported results are the mean averages of the three replicates.
Colby's Equation was used to determine the herbicidal effects expected from the mixtures. […]

The values below come from patent US20100317525A1, “HERBICIDAL MIXTURE” (E.I. DU PONT DE NEMOURS AND COMPANY, priority 2007, published 2010).

For the compound `CN(C)C(=O)Nc1ccc(Cl)c(Cl)c1` [Diuron, N′(3,4-dichlorophenyl)-N,N-dimethylurea], for the setting “diuron 1800 g a.i./ha (as KARMEX)”, the “% Control Observed” value is listed as 20%.

For the compound `CS(=O)(=O)c1ccc(C(=O)C2C(=O)CCCC2=O)c(Cl)c1COCC(F)(F)F` [Tembotrione, 2-[2-chloro-4-(methylsulfonyl)-3-[(2,2,2-trifluoroethoxy)methyl]-benzoyl]-1,3-cyclohexanedione], the “% Control Observed” value by setting is: (tembotrione 30 g a.i./ha (as LAUDIS)) 37%; (tembotrione 60 g a.i./ha (as LAUDIS)) 40%; (tembotrione 90 g a.i./ha (as LAUDIS)) 53%; (tembotrione 120 g a.i./ha (as LAUDIS)) 60%.
